Here are results for 29 molecules from US20060247303A1, “7H-dibenzo[b,g][1,5]dioxocin-5-one derivatives and use thereof” (BAYER HEALTHCARE AG, priority 2002, published 2006).

What is called IC50 is the midpoint of a concentration-inhibition curve.

The target of this assay is T1, CETP (Homo sapiens, UniProt P11597).
T1 construct: enriched CETP fraction, obtained from human plasma by means of hydrophobic chromatography; from tissue; host or cells: human plasma
T1 sequence (P11597 18-493): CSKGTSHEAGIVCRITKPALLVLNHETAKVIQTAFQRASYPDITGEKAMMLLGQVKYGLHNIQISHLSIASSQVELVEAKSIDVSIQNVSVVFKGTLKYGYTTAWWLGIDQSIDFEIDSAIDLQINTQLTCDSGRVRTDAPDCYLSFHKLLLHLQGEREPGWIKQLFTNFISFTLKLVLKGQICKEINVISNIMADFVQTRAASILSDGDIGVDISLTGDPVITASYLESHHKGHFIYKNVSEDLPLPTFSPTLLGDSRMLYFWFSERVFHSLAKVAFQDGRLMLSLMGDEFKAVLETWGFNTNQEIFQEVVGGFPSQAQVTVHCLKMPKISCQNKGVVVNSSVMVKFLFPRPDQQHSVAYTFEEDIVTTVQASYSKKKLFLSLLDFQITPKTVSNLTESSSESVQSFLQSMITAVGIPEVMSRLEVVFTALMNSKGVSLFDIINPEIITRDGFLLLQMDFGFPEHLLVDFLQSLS
The assay is described as follows: CETP fluorescence test. It counts as biochemical. The conditions noted are these: CETP from human plasma, transfer of fluorescent cholesterol ester between liposomes, 37° C., 4 hours; read-out: IC50 [nM] Fluor. test. Here is the method:
CETP is obtained in partially purified form from human plasma by differential centrifugation and column chromatography and used for the test. To this end, human plasma is adjusted to a density of 1.21 g per ml using NaBr and centrifuged at 4° C. at 50 000 rpm for 18 h. The bottom fraction (d>1.21 g/ml) is applied to a Sephadex® Phenyl-Sepharose 4B (Pharmacia) column, washed with 0.15 M NaCl/0.001 M tris HCl pH 7.4 and then eluted with distilled water. The CETP-active fractions are pooled, dialysed against 50 mM sodium acetate pH 4.5 and applied to a CM-Sepharose® column (Pharmacia). The mixture is then eluted using a linear gradient (0-1 M NaCl). The pooled CETP fractions are dialysed against 10 mM Tris HCl pH 7.4 and then further purified by chromatography on a Mono Q® column (Pharmacia).
Measurement of the CETP-catalysed transfer of a fluorescent cholesterol ester between liposomes—modified according to the procedure of Bisgaier et al., J. Lipid Res. 34, 1625 (1993):
For the production of the donor liposomes, 1 mg of cholesteryl 4,4-difluoro-5,7-dimethyl-4-bora-3a,4a-diaza-s-indacene-3-dodecanoate (cholesteryl BODIPY® FL C12, Molecular Probes) is dissolved in 600 μl of dioxane with 5.35 mg of triolein and 6.67 mg of phosphatidylcholine with gentle warming in an ultrasonic bath and this solution is added very slowly with ultrasonication to 63 ml of 50 mM tris/HCl, 150 mM NaCl, 2 mM EDTA buffer pH 7.3 at RT.
The suspension is then ultrasonicated under an N2 atmosphere for 30 minutes in the Braukson ultrasonic bath at about 50 watts, the temperature being kept at about 20° C.
The acceptor liposomes are obtained analogously from 86 mg of cholesteryl oleate, 20 mg of triolein and 100 mg of phosphatidylcholine dissolved in 1.2 ml of dioxane and 114 ml of above buffer by ultrasonication at 50 watts (20° C.) for 30 minutes.
For testing, a test mix consisting of 1 part of above buffer, 1 part of donor liposomes and 2 parts of acceptor liposomes is used.
80 μl of test mix are treated with 1-3 μg of enriched CETP fraction, obtained from human plasma by means of hydrophobic chromatography, and 2 μl of the substance to be investigated in DMSO and incubated at 37° C. for 4 hours.
The change in the fluorescence at 485/535 nm is a measure of the CE transfer; the inhibition of the transfer in comparison to the control batch without substance is determined.
Turning to `COc1c([C@@H](O)CC(C)C)ccc2c1C(=O)OC(C)c1cc(C)cc(OCCC(C)C)c1O2` (mixture of isomers) [Example A-80, [(1S)-1-Hydroxy-3-methylbutyl]-11-(isopentyloxy)-4-methoxy-7,9-dimethyl-5H,7H-dibenzo[b,g][1,5]dioxocin-5-one], the 50% inhibitory concentration (IC50) was determined as 5000 nM.
`COc1c([C@@H](O)CC(C)C)ccc2c1C(=O)OCc1c(C)c(C)c(C)c(OC(=O)C(C)(C)C)c1O2` [Example A-35]: the half-maximal inhibitory concentration (IC50) came out at 200 nM.
With `COc1c([C@@H](O)CC(C)C)ccc2c1C(=O)OCc1cc(C)cc(OS(=O)(=O)C(C)C)c1O2` [Example A-42, 9-[(1S)-1-Hydroxy-3-methylbutyl]-8-methoxy-3-methyl-7-oxo-5H,7H-dibenzo[b,g]-[1,5]-dioxocin-1-yl 2-propanesulphonate], the IC50 amounted to 700 nM.
To `COc1c([C@@H](O)CC(C)C)ccc2c1C(=O)OCc1c(Cl)c(C)c(Cl)c(OC(=O)C(C)(C)C)c1O2` [Example A-47] belongs 200 nM.
Regarding `COc1c(C(O)CC(C)(C)C)ccc2c1C(=O)OCc1cc(C)cc(OCCC(C)C)c1O2` (centres unmarked) [Example A-55, 3-(1-Hydroxy-3,3-dimethylbutyl)-11-(isopentyloxy)-4-methoxy-9-methyl-5H,7H-dibenzo[b,g][1,5]dioxocin-5-one], the IC50 is 1500 nM.
Regarding `COc1c(C(O)CC(C)C)ccc2c1C(=O)OCc1cc(C)cc(C#CCC(C)C)c1O2` (centres unmarked) [Example A-63], the concentration for half-maximal inhibition (IC50) was 2000 nM.
For the molecule `COc1c(C(O)CC(C)C)ccc2c1C(=O)OCc1c(F)c(C)cc(OCCC(C)C)c1O2` (centres unmarked) [Example A-64], the IC50 turned out to be 500 nM.
On to `COc1c(C(O)CC(C)C)ccc2c1C(=O)OCc1cc(C)cc(CCC3CCCC3)c1O2` (centres unmarked) [Example A-70, 11-(2-Cyclopentylethan-1-yl)-3-(1-hydroxy-3-methylbutyl)-4-methoxy-9-methyl-5H,7H-dibenzo[b,g][1,5]dioxocin-5-one], for which the IC50 was 2000 nM.
Take `COc1c([C@@H](O)CC(C)C)ccc2c1C(=O)OCc1c(C#N)c(C)cc(OCCC(C)C)c1O2` [Example A-78, 9-[(1S)-1-Hydroxy-3-methylbutyl]-1-(isopentyloxy)-8-methoxy-3-methyl-7-oxo-5H,7H-dibenzo[b,g][1,5]dioxocin-4-carbonitrile]: the half-maximal inhibitory concentration (IC50) is 3000 nM.
As to `COc1c([C@@H](O)CC(C)C)ccc2c1C(=O)OCc1c(Br)c(C)c(Br)c(OCCCC(F)(F)F)c1O2` [Example B-1, 8,10-Dibromo-3-[(1S)-1-hydroxy-3-methylbutyl]-4-methoxy-9-methyl-11-(4,4,4-trifluorobutoxy)-5H,7H-dibenzo[b,g][1,5]dioxocin-5-one], the concentration for half-maximal inhibition (IC50) amounted to 1000 nM.
As for `COc1c([C@@H](O)CC(C)C)ccc2c1C(=O)OCc1cc(C)cc(OCC3CC4C=CC3C4)c1O2` (stereo partly drawn) [Example B-5, 3-[(1S)-1-Hydroxy-3-methylbutyl]-4-methoxy-9-methyl-11-(bicyclo[2.2.1]hept-5-en-2-ylmethoxy)-5H,7H-dibenzo[b,g][1,5]dioxocin-5-one], the IC50 was 1500 nM.
On to `COc1c([C@@H](O)CC(C)C)ccc2c1C(=O)OCc1cc(C)cc(OC(=O)C3(c4cccc(F)c4)CCCCC3)c1O2` [Example B-8], for which the half-inhibitory concentration (IC50) came to 1000 nM.
In the case of `COc1c([C@@H](O)CC(C)C)ccc2c1C(=O)OCc1cc(C)cc(OC(=O)C3(C)CC3(F)F)c1O2` (some centres unmarked) [Example B-22] it was 700 nM; in that of `COc1c([C@@H](O)CC(C)C)ccc2c1C(=O)OCc1c(Cl)c(C)cc(OC(=O)C(C)(C)CF)c1O2` [Example B-42], 300 nM.
For the molecule `COc1c([C@@H](O)CC(C)C)ccc2c1C(=O)OCc1c(Cl)c(C)c(Br)c(OC(=O)C3CCC3)c1O2` [Example B-50], the half-maximal inhibitory concentration (IC50) was found to be 250 nM.
In the case of `COc1c([C@@H](O)CC(C)C)ccc2c1C(=O)OCc1c(Cl)c(C)c(Cl)c(OC(=O)N3CC4CCC(C3)O4)c1O2` [Example B-165] it was 300 nM; in that of `COc1c([C@@H](O)CC(C)C)ccc2c1C(=O)OCc1cc(C(F)F)cc(OCCC(C)C)c1O2` [Example B-176, 9-(Difluoromethyl)-3-[(1S)-1-hydroxy-3-methylbutyl]-11-(isopentyloxy)-4-methoxy-5H,7H-dibenzo[b,g][1,5]dioxocin-5-one], 5000 nM; in that of `COc1c([C@@H](O)CC(C)C)ccc2c1C(=O)OCc1c(Br)c(C)c(Cl)c(OC(=O)[C@@]3(C)C[C@H]4CC[C@@H]3C4)c1O2` [Example C-21], 70 nM.
In the case of `COc1c([C@@H](O)CC(C)C)ccc2c1C(=O)OCc1cc(C)c(Cl)c(OC(=O)[C@@]3(C)C[C@H]4CC[C@@H]3C4)c1O2` [Example C-22] it was 75 nM; in that of `COc1c([C@@H](O)CC(C)C)ccc2c1C(=O)OCc1c(Cl)c(C)c(Br)c(OC(=O)C3(C)C4CCC3CC4)c1O2` (some centres unmarked) [Example C-37], 60 nM; in that of `COc1c([C@@H](O)CC(C)C)ccc2c1C(=O)OCc1c(Cl)c(C)c(C)c(OC(=O)[C@@]3(C)C[C@H]4CC[C@@H]3C4)c1O2` [Example C-47], 50 nM.
To `COc1c(C(O)CC(C)(C)C)ccc2c1C(=O)OCc1c(Cl)c(C)c(C3CC3)c(OC(=O)C3(C)C4CCC3CC4)c1O2` (centres unmarked) [Example C-62] belongs 60 nM; to `CCc1c(C)c(Cl)c2c(c1OC(=O)C1(C)C3CCC1CC3)Oc1ccc([C@@H](O)CC(C)C)c(OC)c1C(=O)OC2` (some centres unmarked) [Example C-65], 50 nM.
For `COCc1c(C)c(Cl)c2c(c1OC(=O)C1(C)C3CCC1CC3)Oc1ccc([C@@H](O)CC(C)C)c(OC)c1C(=O)OC2` (some centres unmarked) [Example C-66], the IC50 was found to be 50 nM.
In the case of `COc1c([C@@H](O)CC(C)C)ccc2c1C(=O)OCc1c(Cl)c(C)c(Br)c(OC(=O)C3(C)CCCCC3)c1O2` [Example C-67] it was 90 nM.
To `COc1c([C@@H](O)CC(C)C)ccc2c1C(=O)OCc1c(C)c(C)c(C)c(OC(=O)C3(C)C4CCC3CC4)c1O2` (some centres unmarked) [Example C-82] belongs 60 nM; to `CCc1c(C)cc2c(c1OC(=O)[C@@]1(C)C[C@H]3CC[C@@H]1C3)Oc1ccc([C@@H](O)CC(C)C)c(OC)c1C(=O)OC2` [Example C-91], 40 nM.
As for `COc1c([C@@H](O)CC(C)C)ccc2c1C(=O)OC(C)c1cc(C)cc(OC(=O)C3(C)C4CCC3CC4)c1O2` (some centres unmarked) [Example C-120], the IC50 was 100 nM.
In the case of `COc1c(C(O)CC(C)C)ccc2c1C(=O)OCc1c(F)c(C)c(C)c(OC(=O)C3(C)C4CCC3CC4)c1O2` (centres unmarked) [Example C-128] it was 55 nM.
